{"source": "patent US6627657B1", "about": "(priority 2000, dated 2003)", "system": "Zygosaccharomyces bailii ATCC 60483", "format": "cell-based", "details": "30 seconds", "protocol": "The rate at which a composition of the invention killed a test organism was measured by inoculating use solutions with a test organism and then quantifying survivors after various exposure times. Ninety-nine mL of each use solution was transferred to a 250 mL Erlenmeyer flask and allowed to equilibrate to test temperature. The liquid in the flask was swirled vigorously in a rapid circular motion and 1 mL of a suspension of the test organism was added.\nAfter the exposure time, 1 mL quantities of the use solution/test organism mixture were transferred to 9 mL of the use-solution neutralizer. One mL quantities of the neutralizer were pour-plated using the plating medium. Serial 10-fold or 100-fold dilutions of the neutralizer solution were also plated. Plates were incubated and then surviving microorganisms were counted. The Log10 reduction of the test organism due to the use solution was determined by comparing reduction to an untreated control set (referred to as the Inoculum Numbers).\nThe test method was carried out as described in Example 5.\nTo determine the antifungal activity of hydrogen peroxide and peroxyacetic independently and in combination with a quaternary ammonium compound, the following experimental perimeters were used. The test organism studied was Zygosaccharomyces bailii ATCC 60483.\nThe test temperature used was 25° C., and the exposure time was 30 seconds. The use-solution neutralizer used was 1% sodium thiosulfate/1% peptone/0.025% catalase (for POAA, H2O2), Chambers neutralizer (for quaternary ammonium compound), and 1:1 mixture of the above (for POAA/H2O2/quaternary ammonium compound).\nThe microorganisms were plated on Sabourad dextrose agar and incubated for 4 days at 26° C.", "note": "Read-outs that look alike come from different tables or passages of the source."}
{"smiles": "CCCCCCCCCC[N+](C)(C)CCCCCCCCCC.[Cl-]", "note": "[Didecyl Dimethyl Ammonium Chloride]", "values": [{"measurement": "Log Reduction", "setting": "20 ppm, pH 3, 25° C.", "result": 0.00}, {"measurement": "Survivors", "setting": "20 ppm, pH 3, 25° C.", "result": "9.4 × 10^6 cfu/ml"}, {"measurement": "Log Reduction", "setting": "20 ppm, pH 5, 25° C.", "result": 0.02}, {"measurement": "Survivors", "setting": "20 ppm, pH 5, 25° C.", "result": "7.1 × 10^6 cfu/ml"}, {"measurement": "Log Reduction", "setting": "20 ppm, pH 7, 25° C.", "result": 0.05}, {"measurement": "Survivors", "setting": "20 ppm, pH 7, 25° C.", "result": "6.6 × 10^6 cfu/ml"}, {"measurement": "Log Reduction", "setting": "20 ppm, pH 9, 25° C.", "result": 0.18}, {"measurement": "Survivors", "setting": "20 ppm, pH 9, 25° C.", "result": "4.9 × 10^6 cfu/ml"}, {"measurement": "Log Reduction", "setting": "20 ppm, pH 11, 25° C.", "result": 1.69}, {"measurement": "Survivors", "setting": "20 ppm, pH 11, 25° C.", "result": "1.5 × 10^5 cfu/ml"}]}
{"smiles": "OO", "note": "[Hydrogen Peroxide]", "values": [{"measurement": "Log Reduction", "setting": "532 ppm, pH 3, 25° C.", "result": 0.00}, {"measurement": "Survivors", "setting": "532 ppm, pH 3, 25° C.", "result": "7.5 × 10^6 cfu/ml"}, {"measurement": "Log Reduction", "setting": "532 ppm, pH 5, 25° C.", "result": 0.00}, {"measurement": "Survivors", "setting": "532 ppm, pH 5, 25° C.", "result": "9.9 × 10^6 cfu/ml"}, {"measurement": "Log Reduction", "setting": "532 ppm, pH 7, 25° C.", "result": 0.00}, {"measurement": "Survivors", "setting": "532 ppm, pH 7, 25° C.", "result": "7.9 × 10^6 cfu/ml"}, {"measurement": "Log Reduction", "setting": "532 ppm, pH 9, 25° C.", "result": 0.04}, {"measurement": "Survivors", "setting": "532 ppm, pH 9, 25° C.", "result": "6.8 × 10^6 cfu/ml"}, {"measurement": "Log Reduction", "setting": "532 ppm, pH 11, 25° C.", "result": 0.06}, {"measurement": "Survivors", "setting": "532 ppm, pH 11, 25° C.", "result": "6.5 × 10^6 cfu/ml"}]}
